Data published in patent publication US4115385A, “Antibacterial 3-(5-tetrazolyl) penam compounds” (Pfizer Inc., priority 1977, dated 1978).
In brackets after ≈: the same amount, converted by molar mass.

Test system: Streptococcus pyogenes
Assay: In vitro minimum inhibitory concentration (MIC) vs. Strep. pyogenes
Format: cell-based
Conditions: Streptococcus pyogenes, read-out: MIC vs. Strep. pyogenes
Method: The antibacterial penam compounds of the instant invention show activity against a wide variety of gram-positive and gram-negative bacteria. […] The broth is inoculated with the bacterial culture, and with the test antibiotic, and then it is incubated overnight. On the next day, the test is read visually. The minimum inhibitory concentration (MIC) is the lowest concentration of antibiotic which prevents turbidity, i.e., which prevents growth of the microorganism. In vitro activities of several of the penam compounds of the invention are presented later in this specification.
In Table II, the minimum inhibitory concentrations (MIC's) of compounds of formula I, wherein R^2 is hydrogen, against a strain of Streptococcus pyogenes, are reported; and in Table III, minimum inhibitory concentrations of compounds of formula I, wherein R^2 is hydrogen, against a strain of Staphylococcus aureus, are presented. Because of the tautomeric nature of such tetrazole derivatives, referred to hereinbefore,each of the preparations tested also contains some of the corresponding compound of formula II, wherein R^3 is hydrogen.

Compound | MIC [µg/mL]
CC1(C)S[C@@H]2[C@H](NC(=O)[C@H](NC(=O)c3ccco3)c3ccccc3)C(=O)N2[C@H]1c1nnn[nH]1 [D-2-(2-furancarboxamido)-2-phenylacetyl] | 0.1 (≈ 0.214 µM)
CC1(C)S[C@@H]2[C@H](NC(=O)[C@H](NC(=O)C(=Cc3cccs3)C(=O)O)c3ccccc3)C(=O)N2[C@H]1c1nnn[nH]1 [6-(D-2-[2-carboxy-3-(2-thienyl)acrylamido]-2-phenylacetamido)-2,2-dimethyl-3-(5-tetrazolyl)penam] | < 0.1
CN(C)C=N[C@@H](C(=O)N[C@@H]1C(=O)N2[C@@H]1SC(C)(C)[C@@H]2c1nnn[nH]1)c1ccc(O)cc1 [6-(D-2-[Dimethylaminomethyleneamino]-2-[p-hydroxyphenyl]-acetamido)-2,2-dimethyl-3-(5-tetrazolyl)-penam] | < 0.1
CC1(C)S[C@@H]2[C@H](NC(=O)[C@H](NC(=O)NC(=O)C34CC5CC(CC(C5)C3)C4)c3ccccc3)C(=O)N2[C@H]1c1nn[nH]n1 | < 0.1
CC1(C)S[C@@H]2[C@H](NC(=O)[C@H](NC(=O)c3ccc(N)cc3)c3ccccc3)C(=O)N2[C@H]1c1nn[nH]n1 [D-2-(4-aminobenzamido)-2-phenylacetyl, 6-(D-2-[4-Aminobenzamido]-2-phenylacetamido)-2,2-dimethyl-3-(5-tetrazolyl)penam] | < 0.1
CCC(=O)NC(=O)N[C@@H](C(=O)N[C@@H]1C(=O)N2[C@@H]1SC(C)(C)[C@@H]2c1nn[nH]n1)c1ccccc1 [2-(3-propionylureido)-2-phenylacetyl] | < 0.1
CC1(C)S[C@@H]2[C@H](NC(=O)CNC(=O)NC(=N)c3ccccc3)C(=O)N2[C@H]1c1nnn[nH]1 [2-(3-[benzimidoyl]ureido)-acetyl] | < 0.1
CC1(C)S[C@@H]2[C@H](NC(=O)Cc3ccc(OCCN=[N+]=[N-])cc3)C(=O)N2[C@H]1c1nn[nH]n1 [2-(4-[2-azidoethoxy]phenyl)acetyl, 6-(2-[4-(2-Azidoethoxy)phenyl]acetamido)-2,2-dimethyl-3-(5-tetrazolyl)penam] | < 0.1
CC1(C)S[C@@H]2[C@H](NC(=O)C(NC(=O)CBr)c3ccccc3)C(=O)N2[C@H]1c1nn[nH]n1 (some centres unmarked) [2-(2-bromoacetamido)-2-phenylacetyl, 6-(2-[2-bromoacetamido]-2-phenylacetamido)-2,2-dimethyl-3-(5-tetrazolyl)penam] | < 0.1
CC1(C)S[C@@H]2[C@H](NC(=O)[C@H](NC(=O)Nc3ccccc3)c3ccccc3)C(=O)N2[C@H]1c1nnn[nH]1 [D-2-(3-phenylureido)-2-phenylacetyl] | < 0.1
CC1(C)S[C@@H]2[C@H](NC(=O)[C@H](NC(=O)CNC(=N)c3ccccc3)c3ccccc3)C(=O)N2[C@H]1c1nnn[nH]1 [6-(D-2-[2-(Benzamidino)acetamido]-2-phenylacetamido)-2,2-dimethyl-3-(5-tetrazolyl)penam] | < 0.1
CC1(C)S[C@@H]2[C@H](NC(=O)C(N)c3cccnc3)C(=O)N2[C@H]1c1nnn[nH]1 (mixture of isomers) [DL-2-amino-2-(3-pyridyl)acetyl] | < 0.1
CC1(C)S[C@@H]2[C@H](NC(=O)C(=O)c3ccccc3)C(=O)N2[C@H]1c1nnn[nH]1 [phenylglyoxyloyl] | < 0.1
CCOC(=O)CC(=O)N[C@@H](C(=O)N[C@@H]1C(=O)N2[C@@H]1SC(C)(C)[C@@H]2c1nnn[nH]1)c1ccccc1 | < 0.1
CC1(C)S[C@@H]2[C@H](NC(=O)[C@H](NC(=O)CNS(=O)(=O)Cc3ccccc3)c3ccccc3)C(=O)N2[C@H]1c1nn[nH]n1 | < 0.1
CC1(C)S[C@@H]2[C@H](NC(=O)[C@H](NS(=O)(=O)c3ccccc3)c3ccc(O)cc3)C(=O)N2[C@H]1c1nn[nH]n1 [6-(D-2-[Benzenesulfonamido]-2-[p-hydroxyphenyl]acetamido)-2,2-dimethyl-3-(5-tetrazolyl)penam] | < 0.1
CC(=N)NCC(=O)N[C@@H]1C(=O)N2[C@@H]1SC(C)(C)[C@@H]2c1nnn[nH]1 [2-(acetamidino)acetyl] | < 0.1
CC1(C)S[C@@H]2[C@H](NC(=O)[C@H](NC(=O)CSc3nc4ccccc4[nH]3)c3ccccc3)C(=O)N2[C@H]1c1nn[nH]n1 | < 0.1
CC1(C)S[C@@H]2[C@H](NC(=O)C(N)c3cc(O)ccc3Br)C(=O)N2[C@H]1c1nnn[nH]1 (mixture of isomers) | < 0.1
CC1(C)S[C@@H]2[C@H](NC(=O)[C@H](NC(=O)Cc3ccc(N)cc3)c3ccccc3)C(=O)N2[C@H]1c1nn[nH]n1 [6-(D-2-[2-(4-Aminophenyl)acetamido]-2-phenylacetamido)-2,2-dimethyl-3-(5-tetrazolyl)penam] | < 0.1
CC1(C)S[C@@H]2[C@H](NC(=O)[C@H](NC(=O)Cc3ccco3)c3ccccc3)C(=O)N2[C@H]1c1nnn[nH]1 | < 0.1
CC1(C)S[C@@H]2[C@H](NC(=O)Cc3ccc(CN)s3)C(=O)N2[C@H]1c1nnn[nH]1 [2-(5-aminomethyl-2-thienyl)-acetyl, 6-(2-[5-Aminomethyl-2-thienyl]acetamido)-2,2-dimethyl-3-(5-tetrazolyl)penam] | ≤ 0.1
CC1(C)S[C@@H]2[C@H](NC(=O)[C@H](NC(=O)CCNC(=N)c3cccs3)c3ccccc3)C(=O)N2[C@H]1c1nnn[nH]1 | < 0.1

Same assay, conditions: Streptococcus pyogenes; Examples; read-out: MIC against Strep. pyogenes

Compound | MIC [µg/mL]
CC(C)(C)C(=O)OCn1nnc([C@@H]2N3C(=O)[C@@H](NC(=O)[C@H](N)c4ccc(O)cc4)[C@H]3SC2(C)C)n1 [6-(D-2-Amino-2-[p-hydroxyphenyl]acetamido)-2,2-dimethyl-3-(2-[pivaloyloxymethyl]tetrazol-5-yl)penam] | 0.39 (≈ 0.774 µM)

Same assay, conditions: Streptococcus pyogenes; Table II; two-fold serial dilution, Brain-Heart Infusion broth, overnight; read-out: MIC vs. Strep. pyogenes

Compound | MIC [µg/mL]
CC1(C)S[C@@H]2[C@H](NC(=O)[C@H](N)c3ccc(F)cc3)C(=O)N2[C@H]1c1nnn[nH]1 [D-2-amino-2-(p-fluorophenyl)acetyl, 6-(D-2-amino-2-[p-fluorophenyl]acetamido)-2,2-dimethyl-3-(5-tetrazolyl)penam] | 3.12 (≈ 7.97 µM)
CC1(C)S[C@@H]2[C@H](NC(=O)[C@H](NC(=O)NC(=O)CSC(=N)N)c3ccccc3)C(=O)N2[C@H]1c1nn[nH]n1 [6-(D-2-[3-(2-[Guanylthio]acetyl)ureido]-2-phenylacetamido)-2,2-dimethyl-3-(5-tetrazol-5-yl)penam] | 0.004 (≈ 0.00751 µM)
CC1(C)S[C@@H]2[C@H](NC(=O)Cc3ccccc3CC(=O)O)C(=O)N2[C@H]1c1nnn[nH]1 [2-(2-[carboxymethyl]phenyl)acetyl, 6-(2-[2-(Carboxymethyl)phenyl]acetamido)-2,2-dimethyl-3-(5-tetrazolyl)penam] | 0.2 (≈ 0.48 µM)
CC1(C)S[C@@H]2[C@H](NC(=O)[C@H](NS(=O)(=O)c3cccs3)c3ccccc3)C(=O)N2[C@H]1c1nn[nH]n1 | 0.39 (≈ 0.751 µM)
CCOC(=O)CC(=O)N[C@@H]1C(=O)N2[C@@H]1SC(C)(C)[C@@H]2c1nnn[nH]1 [2-(ethoxycarbonyl)acetyl] | 0.39 (≈ 1.1 µM)
CC1(C)S[C@@H]2[C@H](NC(=O)[C@H](NC(=O)c3ccc(NC(=N)N)cc3)c3ccccc3)C(=O)N2[C@H]1c1nn[nH]n1 [6-(D-2-[p-Guanidinobenzamido]-2-phenylacetamido)-2,2-dimethyl-3-(5-tetrazolyl)penam] | 1.56 (≈ 2.92 µM)
CC1(C)S[C@@H]2[C@H](NC(=O)[C@H](NC(=O)CCNC(=S)Nc3ccccc3)c3ccccc3)C(=O)N2[C@H]1c1nnn[nH]1 | 1.56 (≈ 2.69 µM)
CC1(C)S[C@@H]2[C@H](NC(=O)[C@@H](c3ccccc3)N3C(=O)c4ccccc4C3=O)C(=O)N2[C@H]1c1nnn[nH]1 [D-2-phthalimido-2-phenylacetyl, 6-(D-2-Phthalimido-2-phenylacetamido)-2,2-dimethyl-3-(5-tetrazolyl)penam] | 0.004 (≈ 0.00794 µM)
CC1(C)S[C@@H]2[C@H](NC(=O)[C@H](NC(=O)CNC(=N)c3nc4ccccc4o3)c3ccccc3)C(=O)N2[C@H]1c1nnn[nH]1 | 0.39 (≈ 0.679 µM)
CC1(C)S[C@@H]2[C@H](NC(=O)[C@H](NC(=O)NC(=O)CCl)c3ccccc3)C(=O)N2[C@H]1c1nn[nH]n1 [2-(3-[chloroacetyl]ureido-2-phenylacetyl] | 0.2 (≈ 0.406 µM)
CC1(C)S[C@@H]2[C@H](NC(=O)[C@H](NC(=O)NC(=O)c3ccncc3)c3ccccc3)C(=O)N2[C@H]1c1nn[nH]n1 | 0.2 (≈ 0.383 µM)
CC1(C)S[C@@H]2[C@H](NC(=O)[C@H](NC(=O)CSCc3ccccc3)c3ccccc3)C(=O)N2[C@H]1c1nnn[nH]1 | 0.78 (≈ 1.45 µM)
CC1(C)S[C@@H]2[C@H](NC(=O)[C@H](NC(=O)NC(=N)N)c3ccc(O)cc3)C(=O)N2[C@H]1c1nnn[nH]1 [6-(D-2-[3-guanylureido]-2-[4-hydroxyphenyl]acetamido)-2,2-dimethyl-3-(5-tetrazolyl)-penam] | 0.004 (≈ 0.00843 µM)
CC(=O)NC(=O)N[C@@H]1C(=O)N2[C@@H]1SC(C)(C)[C@@H]2c1nn[nH]n1 [N-acetylcarbomoyl] | 1.56 (≈ 4.79 µM)
CC1(C)S[C@@H]2[C@H](NC(=O)[C@H](NC(=O)CCNC(=N)Cc3ccc(Cl)cc3)c3ccccc3)C(=O)N2[C@H]1c1nnn[nH]1 | 1.56 (≈ 2.62 µM)
CC1(C)S[C@@H]2[C@H](NC(=O)NC(=O)c3ccco3)C(=O)N2[C@H]1c1nn[nH]n1 [N-(2-furoyl)carbamoyl] | 1.56 (≈ 4.13 µM)
CC1(C)S[C@@H]2[C@H](NC(=O)C(N)c3cccc([N+](=O)[O-])c3)C(=O)N2[C@H]1c1nnn[nH]1 (mixture of isomers) [DL-2-amino-2-(m-nitrophenyl)acetyl] | 0.004
Cc1ccc(S(=O)(=O)NC(=O)N[C@@H]2C(=O)N3[C@@H]2SC(C)(C)[C@@H]3c2nn[nH]n2)cc1 [N-(p-toluenesulfonyl)carbomoyl] | 1.56 (≈ 3.57 µM)
CC1(C)S[C@@H]2[C@H](NC(=O)C(C(=O)O)c3ccccc3)C(=O)N2[C@H]1c1nnn[nH]1 (some centres unmarked) [2-carboxy-2-phenylacetyl, 6-(2-Carboxy-2-phenylacetamido)-2,2-dimethyl-3-(5-tetrazolyl)penam] | 0.002 (≈ 0.00497 µM)

Same assay, conditions: Streptococcus pyogenes; Table IV; read-out: MIC vs. Strep. pyogenes

Compound | MIC [µg/mL]
CC(C)(C)C(=O)OCn1nnc([C@@H]2N3C(=O)[C@@H](NC(=O)[C@H](N)c4ccc(O)cc4)[C@H]3SC2(C)C)n1 [6-(D-2-Amino-2-[p-hydroxyphenyl]acetamido)-2,2-dimethyl-3-(2-[pivaloyloxymethyl]tetrazol-5-yl)penam] | 0.39 (≈ 0.774 µM)
